Data: US5547972A, “Therapeutic agents useful for treating inflammatory diseases” (The Boots Company PLC, priority 1991, dated 1996)
Where a name gives a salt, the structure may show the parent alone.

System: Zymosan Stimulated Macrophaqes
Assay: Test A: Inhibition of Arachidonic Acid Release from Zymosan Stimulated Macrophages
Type: cell-based, mouse (female MF1)
Conditions: Mus musculus, Macrophage, 5 h, inhibition of arachidonic acid release; six concentrations (100, 50, 20, 10, 5 and 1 μM); 5 h with zymosan; read-out: Test A IC50
Protocol: Inhibition of Arachidonic Acid Release from Zymosan Stimulated Macrophaqes
Female MF1 mice (weighing 20 to 25 g) were killed using a rising concentration of CO2. The mice were laid on their backs and the abdomens wiped with 70% alcohol. The skin was pulled back, exposing the peritoneal wall. Medium A (5 ml) (see below) was injected into the peritoneal cavity of each mouse followed by approximately 1 ml of air using a 20 ml syringe and a 21 G×40 mm needle in order to form a suspension of macrophage cells. The medium and cells were then removed using a 19 G×40 mm needle. The resulting suspension was returned to a sterile beaker kept on ice. The extracts from all the mice were pooled and this pooled cell suspension was counted using a Coulter counter and adjusted to a final cell count of 1-1.3×10^6 cells/ml prior to labelling with [^3 H]-arachidonic acid. Typically five mice provided sufficient cells for each multiwell plate.
Sufficient [^3 H]-arachidonic acid in ethanol to give a final concentration of 1.6 μCi/ml (equivalent to 40 μCi/plate) was blown to dryness under nitrogen. The arachidonic acid was then resuspended in 1 or 2 ml of the cell suspension which was then mixed with the remainder of the cell suspension in a centrifuge bottle. The labelled cell suspension was then plated out into sterile plastic 96 flat-bottomed well plates (250 μl per well) and incubated overnight at 37° C. in a moist atmosphere of 5% CO2, 95% air.
The following day, non-adherent cells were removed by washing 3 times with sterile phosphate buffered saline (PBS). The adherent peritoneal macrophages were then cultured for a further 24 hours in the presence or absence of drugs, in medium B (see below) at 37° in a 5% CO2 atmosphere in order to measure the effects of drugs on the spontaneous release of arachidonic acid in the absence of stimulus. After this incubation, supernatants were removed to give media 1 and stored in sealed multi-well plates at 4° C. prior to scintillation counting. Drugs which potentiated spontaneous release of arachidonic acid (125% of controls) were deemed to be toxic at the concentration at which this phenomenon occurred. The supernatants were replaced by fresh medium C containing fresh drug and a stimulus. Three drugs were tested at six concentrations (100, 50, 20, 10, 5 and 1 μM) in replicates of four on each plate. The other wells contained controls consisting of a positive control (e.g. dexamethasone), medium (B) only and medium C only.
Incubation was then continued for a further 5 hours, whereupon the supernatants were collected to give media 2 and the adherent cells washed with PBS. The cells were then lysed with 100 μl of 0.1% TRITON® X100 in a 0.1% solution of bovine serum albumin in 0.9% saline and mechanically disrupted to give cell lysates. These supernatants (media 2) and cell lysates (Cells) were also stored in sealed multi-well plates at 4° C. prior to scintillation counting. 200 μl aliquots of media, or 100 μl aliquots of cells were counted using 2 ml of OPTIPHASE "HIGH SAFE" (Trademark of LKB) as scintillant.
The percentage of arachidonic acid released was calculated using the mean values for each group of 4 wells in the following equation. [formula] cpm=courts per minute
The value for the arachidonic acid release in the absence of stimulus (spontaneous, cpm of media 2) from cells which had been exposed to neither stimulus nor drug was subtracted from all equivalent values (cpm media 2, stimulated with or without drug) to give the net stimulated release. The percentage inhibition of arachidonic acid release caused by a drug may then be calculated using the following equation. [formula]
Compounds of formula I were tested at six concentrations (100, 50, 20, 10, 5 and 1 μM) and IC50 values calculated. Compounds with IC50 values<100 μM are considered to be active. Advantageous compounds have an IC50 value <50 μM.
Medium A (for peritoneal lavage) […]

Compound | IC50 [µM]
CC(NCCCn1ccnc1)c1ccc(Cl)c(Cl)c1 (stereo not drawn) [Example 3, N-[1-(3,4-Dichlorophenyl)ethyl]-3-(imidazol-1-yl)propylamine] | 60
CC(C)(CNCc1ccc(Cl)cc1)Cn1ccnc1 [Example 61, N-(4-chlorobenzyl)-3-(imidazol-1-yl)-2,2-dimethylpropylamine] | 70
CCCOC(=O)c1ccc(CNCCCn2ccnc2C)cc1 [Example 94, propyl 4-[3-(2-methylimidazol-1-yl)propylaminomethyl]benzoate] | 20
CC(C)(NCCCCCCCCn1ccnc1)c1ccc(Cl)cc1 [Example 63, N-[1-(4-chlorophenyl)-1-methylethyl]-8-(imidazol-1-yl)octylamine] | 7
FC(F)(F)Oc1ccc(CNCCCn2ccnc2)cc1 [Example 38, 3-(Imidazol-1-yl)-N-(4-trifluoromethoxybenzyl)propylamine dihydrochloride] | 80
CC(NCCCn1ccnc1)c1cc(Cl)ccc1Cl (stereo not drawn) [Example 15, N-[1-(2,5-Dichlorophenyl)ethyl]-3-(imidazol-1-yl)propylamine] | 72
CC(C)(NCCCn1ccnc1)c1ccc(OCc2ccccc2)cc1 [Example 87, N-[1-(4-Benzyloxyphenyl)-1-methylethyl]-3-(imidazol-1-yl)propylaminedihydrochloride] | 12
CC(NCCCn1ccnc1)c1ccc(OC(F)(F)F)cc1 (stereo not drawn) [Example 23, 3-(Imidazol-1-yl)-N-[1-(4-trifluoromethoxyphenyl)ethyl]propylamine sesquicitrate] | 22
CC(NCCCn1ccnc1)c1ccc(N(C)C)cc1 (stereo not drawn) [Example 6, N-[1-(4-Dimethylaminophenyl)ethyl]-3-(imidazol-1-yl)-propylamine] | 92
Cc1nccn1CCCN(C)Cc1ccc(Cl)cc1 [Example 97, N-(4-chlorobenzyl)-N-methyl-3-(2-methylimidazol-1-yl)propylamine] | 60
Cc1cn(CCCNCc2ccc(Cl)cc2)c(C)n1 [Example 42, N-(4-chlorobenzyl)-3-(2,4-dimethylimidazol-1-yl)propylamine dihydrochloride] | 8
CCOc1cc(Cl)ccc1C(C)NCCCn1ccnc1 (stereo not drawn) [Example 18, N-[1-(4-Chloro-2-ethoxyphenyl)ethyl]-3-(imidazol-1-yl)propylamine] | 50
Cc1cn(CCCNCc2ccc(Cl)cc2)c(-c2ccccc2)n1 [Example 48, N-(4-chlorobenzyl)-3-(4-methyl-2-phenylimidazol-1-yl)propylamine] | 15
CN(CCCn1ccnc1)C(C)(C)c1ccc(Cl)cc1 [Example 96, N-[1-(4-chlorophenyl)-1-methylethyl]-3-(imidazol-1-yl)-N-methylpropylamine] | 75
CC(NCCCn1ccnc1)c1ccc(F)cc1 (stereo not drawn) [Example 4, N-[1-(4-Fluorophenyl)ethyl]-3-(imidazol-1-yl)propylamine] | 95
Clc1ccc(CNCCCCn2ccnc2)cc1 [Example 46, N-(4-Chlorobenzyl)-4-(imidazol-1-yl)butylamine dihydrochloride] | 86
CCOC(=O)c1ccc(C(C)NCCCn2ccnc2)cc1 (stereo not drawn) [Example 20, Ethyl 4-{1-[3-(imidazol-1-yl)propylamino]ethyl}benzoate] | 70
CC(C)(NCCCn1ccnc1)c1ccc2ccccc2c1 [Example 83, N-[1-(2-Naphthyl)-1-methylethyl]-3-(imidazol-1-yl)propylamine dihydrochloride hemihydrate] | 28
CCC(CC)(NCCCn1cnc(CO)c1)c1ccccc1 [Example 86, 1-[3-(1-ethyl-1-phenylpropylamino)propyl]imidazol-4-yl-methanol] | 78
CC(C)(NCCCn1ccnc1)c1ccc(-c2ccccc2)cc1 [Example 81, N-[1-(4-Biphenylyl)-1-methylethyl]-3-(imidazol-1-yl)propylamine dihydrochloride] | 14
Cc1cc(C(C)NCCCn2ccnc2)ccc1Cl (stereo not drawn) [Example 12, N-[1-(4-Chloro-3-methylphenyl)ethyl]-3-(imidazol-1-yl)propylamine] | 36
COc1cc(Cl)ccc1C(C)NCCCn1ccnc1 (stereo not drawn) [Example 17, N-[1-(4-Chloro-2-methoxyphenyl)ethyl]-3-(imidazol-1-yl)propylamine] | 90
FC(F)(F)c1ccc(CNCCCn2ccnc2)cc1 [Example 37, 3-(Imidazol-1-yl)-N-(4-trifluoromethylbenzyl)propylamine dihydrochloride] | 75
CC(C)(NCCCn1cnc([N+](=O)[O-])c1)c1ccc(Cl)cc1 [Example 74, N-[1-(4-Chlorophenyl)-1-methylethyl]-3-(4-nitroimidazol-1-yl)propylamine] | 70
CC(C)(NCCCn1cnc(CO)c1)c1ccc(Cl)cc1 [Example 79, 1-{3-[1-(4-Chlorophenyl)-1-methylethylamino]propyl}imidazol-4-yl-methanol] | 85
CCc1ccc(C(C)NCCCn2ccnc2)cc1 (stereo not drawn) [Example 21, N-[1-(4-Ethylphenyl)ethyl]-3-(imidazol-1-yl)propylamine hemioxalate] | 65
Brc1ccc(CNCCCn2ccnc2)cc1 [Example 36, N-(4-Bromobenzyl)-3-(imidazol-1-yl)propylamine] | 90
Cc1nccn1CCCCCNCc1ccc(Cl)cc1 [Example 95, N-(4-chlorobenzyl)-5-(2-methylimidazol-1-yl)pentylamine] | 4
CCC(CC)(NCCCn1cnc(COC(C)=O)c1)c1ccccc1 [Example 103, 1-[3-(α,α-diethylbenzylamino)propyl]imidazol-4-ylmethyl acetate] | 51
CC(c1ccc(Cl)cc1)N(C)CCCn1ccnc1 (stereo not drawn) [Example 90, N-[1-(4-chlorophenyl)ethyl]-3-(imidazol-1-yl)-N-methylpropylamine] | 62

Same assay, conditions: inhibition of arachidonic acid release; six concentrations (100, 50, 20, 10, 5 and 1 μM); 5 h with zymosan; citrate; read-out: Test A IC50

Compound | IC50 [µM]
CC(C)(NCCCn1ccnc1)c1ccc(Cl)cc1 [Example 99, N-[1-(4-chlorophenyl)-1-methylethyl]-3-(imidazol-1-yl)propylamine citrate] | 14

Same assay, conditions: inhibition of arachidonic acid release; six concentrations (100, 50, 20, 10, 5 and 1 μM); 5 h with zymosan; dihydrate; read-out: Test A IC50

Compound | IC50 [µM]
CC(C)(NCCCn1ccnc1)c1ccc(Cl)cc1 [Example 100, N-[1-(4-chlorophenyl)-1-methylethyl]-3-(imidazol-1-yl)propylamine (+)tartrate dihydrate] | 20

Same assay, conditions: inhibition of arachidonic acid release; six concentrations (100, 50, 20, 10, 5 and 1 μM); 5 h with zymosan; read-out: Test A IC50

Compound | IC50 [µM]
A mixture of N-[1-(4-chlorophenyl)-1-methylethyl]-3-(4-methylimidazol-1-yl)propylamine and N-[1-(4-chlorophenyl)-1-methylethyl]-3-(5-methylimidazol-1-yl)propylamine [Example 69] | 11
